Read-outs that look alike come from different tables or passages of the source. Blank lines part the entries; values can stand above or below the compound they belong to.
Legend:
Type in all cases: biochemical
[1] = target: T1, CNGA3 635X homomeric channels (Homo sapiens, UniProt Q16281); assay: Inside-out patch clamp, CNGA3 635X
T1 sequence (Q16281 1-634 limits assumed): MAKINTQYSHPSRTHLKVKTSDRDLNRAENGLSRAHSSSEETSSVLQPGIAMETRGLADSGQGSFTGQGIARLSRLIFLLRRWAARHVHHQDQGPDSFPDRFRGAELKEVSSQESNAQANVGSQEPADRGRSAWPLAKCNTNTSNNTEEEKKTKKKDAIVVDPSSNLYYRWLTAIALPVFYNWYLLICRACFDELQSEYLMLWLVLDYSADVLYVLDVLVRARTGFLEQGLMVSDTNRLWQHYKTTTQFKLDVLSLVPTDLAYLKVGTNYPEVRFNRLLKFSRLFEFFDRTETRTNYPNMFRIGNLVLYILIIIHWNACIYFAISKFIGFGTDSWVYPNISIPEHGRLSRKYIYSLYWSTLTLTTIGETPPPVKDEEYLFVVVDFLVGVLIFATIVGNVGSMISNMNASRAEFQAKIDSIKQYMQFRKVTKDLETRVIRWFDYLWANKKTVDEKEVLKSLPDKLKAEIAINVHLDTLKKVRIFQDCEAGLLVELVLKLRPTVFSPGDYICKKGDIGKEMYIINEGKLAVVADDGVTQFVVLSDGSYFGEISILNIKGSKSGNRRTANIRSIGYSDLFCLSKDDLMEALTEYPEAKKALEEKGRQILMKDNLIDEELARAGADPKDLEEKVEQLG

[2] = target: T2, CNGA3 N7R-A, 613X channels (Homo sapiens, UniProt Q16281, R101A/R103A/R72A/R75A/R81A/R82A/R86A); assay: Inside-out patch clamp, CNGA3 N7R-A, 613X
T2 sequence (Q16281 1-612 R72A/R75A/R81A/R82A/R86A/R101A/R103A limits assumed): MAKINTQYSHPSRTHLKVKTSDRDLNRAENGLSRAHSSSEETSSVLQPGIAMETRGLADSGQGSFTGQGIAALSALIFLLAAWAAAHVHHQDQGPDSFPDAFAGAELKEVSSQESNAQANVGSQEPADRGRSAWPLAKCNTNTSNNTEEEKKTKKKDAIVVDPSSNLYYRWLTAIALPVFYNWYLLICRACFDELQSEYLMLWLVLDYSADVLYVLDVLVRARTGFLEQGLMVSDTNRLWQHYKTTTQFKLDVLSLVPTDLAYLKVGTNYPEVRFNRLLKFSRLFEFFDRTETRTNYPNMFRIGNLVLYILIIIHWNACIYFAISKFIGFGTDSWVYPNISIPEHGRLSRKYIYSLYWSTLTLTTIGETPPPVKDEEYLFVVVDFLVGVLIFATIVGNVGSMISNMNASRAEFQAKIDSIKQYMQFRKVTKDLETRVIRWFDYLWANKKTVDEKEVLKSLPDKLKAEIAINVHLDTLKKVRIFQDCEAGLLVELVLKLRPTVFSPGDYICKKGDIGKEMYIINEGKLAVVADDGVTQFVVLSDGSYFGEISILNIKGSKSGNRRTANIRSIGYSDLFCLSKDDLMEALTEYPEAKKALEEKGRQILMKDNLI

[3] = target: T3, heteromeric CNGA3+CNGB3 channels (Homo sapiens, UniProt Q16281+Q9NQW8); assay: Inside-out patch clamp, heteromeric CNGA3+CNGB3; details: for EC50: read-out: K1/2 cGMP
T3 sequence (Q16281 1-694): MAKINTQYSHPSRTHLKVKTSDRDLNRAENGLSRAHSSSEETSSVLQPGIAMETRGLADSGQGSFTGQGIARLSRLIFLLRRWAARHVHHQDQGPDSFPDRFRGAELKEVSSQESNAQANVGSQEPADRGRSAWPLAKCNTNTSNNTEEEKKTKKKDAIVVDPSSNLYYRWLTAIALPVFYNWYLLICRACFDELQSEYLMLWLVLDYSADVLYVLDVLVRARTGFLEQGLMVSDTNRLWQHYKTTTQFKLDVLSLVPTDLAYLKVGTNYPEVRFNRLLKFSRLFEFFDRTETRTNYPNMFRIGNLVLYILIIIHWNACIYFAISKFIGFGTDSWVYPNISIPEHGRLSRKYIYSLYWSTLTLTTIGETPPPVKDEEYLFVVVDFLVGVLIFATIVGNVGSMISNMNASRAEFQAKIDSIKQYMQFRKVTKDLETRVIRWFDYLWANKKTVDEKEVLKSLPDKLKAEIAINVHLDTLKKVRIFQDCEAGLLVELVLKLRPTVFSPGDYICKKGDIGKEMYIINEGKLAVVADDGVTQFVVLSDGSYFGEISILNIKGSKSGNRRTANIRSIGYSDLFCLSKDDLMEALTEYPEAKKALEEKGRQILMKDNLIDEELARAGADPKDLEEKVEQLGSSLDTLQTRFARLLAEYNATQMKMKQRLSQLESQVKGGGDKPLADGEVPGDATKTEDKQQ
T3 sequence (Q9NQW8 1-809): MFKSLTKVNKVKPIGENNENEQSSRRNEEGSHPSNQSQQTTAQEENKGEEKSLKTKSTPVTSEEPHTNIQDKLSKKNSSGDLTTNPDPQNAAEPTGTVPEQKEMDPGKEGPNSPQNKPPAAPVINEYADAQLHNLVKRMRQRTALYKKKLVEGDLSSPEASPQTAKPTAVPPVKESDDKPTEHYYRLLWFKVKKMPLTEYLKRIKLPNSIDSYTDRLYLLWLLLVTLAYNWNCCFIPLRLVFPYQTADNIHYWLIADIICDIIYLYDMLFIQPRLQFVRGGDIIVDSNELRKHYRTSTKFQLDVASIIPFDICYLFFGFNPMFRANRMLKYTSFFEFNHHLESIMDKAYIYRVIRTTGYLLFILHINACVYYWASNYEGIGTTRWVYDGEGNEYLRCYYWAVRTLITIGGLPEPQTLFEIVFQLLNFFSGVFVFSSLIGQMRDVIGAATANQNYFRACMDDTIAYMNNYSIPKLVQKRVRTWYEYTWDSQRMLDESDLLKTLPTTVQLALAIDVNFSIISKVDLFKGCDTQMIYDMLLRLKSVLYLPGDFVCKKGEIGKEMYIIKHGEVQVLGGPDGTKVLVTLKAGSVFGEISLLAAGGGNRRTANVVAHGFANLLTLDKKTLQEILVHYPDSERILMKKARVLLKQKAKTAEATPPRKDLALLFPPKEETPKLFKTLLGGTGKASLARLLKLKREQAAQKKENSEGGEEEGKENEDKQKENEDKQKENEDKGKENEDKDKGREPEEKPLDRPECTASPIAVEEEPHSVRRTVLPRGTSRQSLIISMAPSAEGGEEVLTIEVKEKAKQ

[4] = read-out: K1/2 cGMP, +80 mV, no PIPn
[5] = representative patch, before PIP2
[6] = representative patch, before PIP3
[7] = mean, after 1 µM PIP3 or 10 µM PIP2
[8] = representative patch, after PIP3 or PIP2

Hill coefficient ([1]; cGMP activation): 2.00 ± 0.00 (5)
EC50 [1, 4]: 8.2 ± 0.57 µM
Po max cGMP ([1]; saturating cGMP): 0.92 ± 0.01 (4)
Hill coefficient ([2]; cGMP activation): 1.82 ± 0.04 (6)
EC50 [2, 4]: 16.4 ± 1.65 µM
Hill coefficient h ([3]; mean, before PIPn): 1.9
EC50 ([3]; mean, before PIPn): 13.5 ± 0.6 µM
EC50 [3, 5]: 12.8 µM
EC50 [3, 6]: 16.1 µM
Hill coefficient h [3, 5]: 1.8
Hill coefficient h [3, 6]: 2.05
Compound: Nc1nc2c(ncn2[C@@H]2O[C@@H]3COP(=O)(O)O[C@H]3[C@H]2O)c(=O)[nH]1 [cGMP, cyclic guanosine monophosphate]

fold change in cAMP efficacy after PIP3 ([1]; 10 µM PIP3): 1.06 ± 0.03 fold
fold change in K1/2 cGMP after PIP3 ([2]; 10 µM PIP3): 1.02 ± 0.05 fold
fold shift of K1/2 cGMP to higher concentration ([3]; 1 µM PIP3): ~1.5 fold
effect on currents elicited by 5 µM cGMP ([3]; 1 µM PIP3 or 10 µM PIP2): attenuated the currents
Imax cAMP/cGMP after phosphoinositide ([3]; after PIP2 or PIP3 application): 0.30 ± 0.03
Hill coefficient h after phosphoinositide [3, 7]: 1.6
K1/2 cGMP after phosphoinositide [3, 7]: 20.8 ± 1.4 µM
Hill coefficient h after phosphoinositide [3, 8]: 2.0
K1/2 cGMP after phosphoinositide [3, 8]: 26.5 µM
Imax cGMP compared with initial values ([3]; saturating cGMP, after 1 µM PIP3 or 10 µM PIP2): 95.4 ± 2.8%
Compound: phosphatidylinositol (3,4,5)-trisphosphate [PIP3]
PIP3-induced change in cAMP efficacy ([1]; 1 µM PIP3): failed to show a PIP3-dependent increase in cAMP efficacy

From article PMC3607822 (The Journal of General Physiology, 2013)
